Data on 18 compounds can be found in EP0153845A2, “CRF analogs” (THE SALK INSTITUTE FOR BIOLOGICAL STUDIES, priority 1984, dated 1985).

Assay [1] deals with T1, cultured rat pituitary cells (Rattus norvegicus, UniProt P35353).
T1 sequence (P35353 24-415): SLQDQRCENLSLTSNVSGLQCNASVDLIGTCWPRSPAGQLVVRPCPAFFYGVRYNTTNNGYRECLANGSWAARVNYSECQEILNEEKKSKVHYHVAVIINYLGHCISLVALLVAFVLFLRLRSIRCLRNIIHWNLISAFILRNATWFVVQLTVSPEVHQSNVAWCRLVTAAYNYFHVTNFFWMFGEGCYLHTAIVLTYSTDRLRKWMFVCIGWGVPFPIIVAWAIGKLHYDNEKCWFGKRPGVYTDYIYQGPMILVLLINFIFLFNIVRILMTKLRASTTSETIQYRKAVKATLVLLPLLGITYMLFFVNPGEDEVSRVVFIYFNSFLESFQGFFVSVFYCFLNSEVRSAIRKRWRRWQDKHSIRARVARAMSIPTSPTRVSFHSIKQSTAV
In words: Block of ACTH and β-endorphin secretion by cultured rat pituitary cells by CRF antagonists (procedure of Example XLIII). Format: cell-based. Conditions: general procedure of Example XLIII. The procedure:
The effectiveness of synthetic CRF antagonists to block the secretion of ACTH and B-endorphin by cultured rat pituitary cells is measured using the procedure as generally set forth in Vale et al., Endocrinology, 91, 562 (1972). In vivo testing is carried out using the general procedure set forth in C. Rivier et al., Science, 218, 377 (1982).

Assay [2] in a line: Lowering of blood pressure, in vivo testing by the general procedure of Example III.
The target of assay [3] is T1, cultured rat pituitary cells. Description: Stimulation of ACTH and β-endorphin secretion by cultured rat pituitary cells (general procedure of Example III). The class given is cell-based. Conditions: general procedure of Example III. The procedure: The synthetic peptide AHC and oCRF were examined for their effects on the secretion of ACTH and B-endorphin in vitro and was also in vivo. The potency of synthetic oCRF to stimulate the secretion of ACTH and β-endorphin by cultured rat pituitary cells was measured using the procedure as generally set forth in Endocrinology, 91, 562 (1972). […] In.vivo testing is carried out using the general procedure set forth in C. Rivier et al., Science, 218, 377 (1982).

Square brackets hold non-standard residues; d marks the D form. Ends that are not written are not given here. Peptide text beside a SMILES is read from it. hArg = N=C(N)NCCCC[C@H](N)C(=O)O; Nle = CCCC[C@H](N)C(=O)O; Orn = NCCC[C@H](N)C(=O)O

`CCCC[C@H](NC(=O)[C@@H](NC(=O)[C@H](CCC(=O)O)NC(=O)[C@H](CC(C)C)NC(=O)[C@H](CC(C)C)NC(=O)[C@H](CCCCN)NC(=O)[C@H](CCCNC(=N)N)NC(=O)[C@H](CC(N)=O)NC(=O)[C@H](CO)NC(=O)[C@H](Cc1c[nH]cn1)NC(=O)[C@H](C)NC(=O)[C@H](CCC(N)=O)NC(=O)[C@H](CCC(N)=O)NC(=O)[C@H](C)NC(=O)[C@H](CC(C)C)NC(=O)[C@H](CCC(N)=O)NC(=O)[C@H](CCC(=O)O)NC(=O)[C@H](C)NC(=O)[C@H](CCCNC(=N)N)NC(=O)[C@H](C)NC(=O)[C@H](C)NC(=O)[C@H](CCC(=O)O)NC(=O)[C@H](CC(C)C)NC(=O)[C@@H](NC(=O)[C@H](CCC(=O)O)NC(=O)[C@H](CCCNC(=N)N)NC(=O)[C@H](CC(C)C)NC(=O)[C@H](CC(C)C)NC(=O)[C@H](Cc1c[nH]cn1)NC(=O)[C@H](Cc1ccccc1)NC(=O)[C@@H](NC(=O)[C@H](CC(C)C)NC(=O)[C@@H](N)CC(=O)O)[C@@H](C)O)C(C)C)[C@@H](C)CC)C(N)=O` [[Ala, Leu^38, Nle^41]-hCRF(9-41)] (H-DLTFHLLREVLEAARAEQLAQQAHSNRKLLEI[Nle]-NH2): in assay [1], the “secretion of ACTH and β-END-LI (antagonist test)” value is listed as “inhibits”.
As for `CCCC[C@H](NC(=O)[C@@H](NC(=O)[C@@H](N)CC(C)C)[C@@H](C)O)C(=O)N[C@@H](Cc1c[nH]cn1)C(=O)N[C@@H](CC(C)C)C(=O)N[C@@H](CC(C)C)C(=O)N[C@@H](CCCNC(=N)N)C(=O)N[C@@H](CCC(=O)O)C(=O)N[C@H](C(=O)N[C@@H](CC(C)C)C(=O)N[C@@H](CCC(=O)O)C(=O)N[C@@H](CCSC)C(=O)N[C@@H](C)C(=O)N[C@@H](CCCNC(=N)N)C(=O)N[C@@H](C)C(=O)N[C@@H](CCC(=O)O)C(=O)N[C@@H](CCC(N)=O)C(=O)N[C@@H](CC(C)C)C(=O)N[C@@H](C)C(=O)N[C@@H](CCC(N)=O)C(=O)N[C@@H](CCC(N)=O)C(=O)N[C@@H](C)C(=O)N[C@@H](Cc1c[nH]cn1)C(=O)N[C@@H](CO)C(=O)N[C@@H](CC(N)=O)C(=O)N[C@@H](CCCNC(=N)N)C(=O)N[C@@H](CCCCN)C(=O)N[C@@H](CC(C)C)C(=O)N[C@@H](CCSC)C(=O)N[C@@H](CCC(=O)O)C(=O)N[C@H](C(=O)N[C@H](C(N)=O)[C@@H](C)CC)[C@@H](C)CC)C(C)C` [[N1e^12]-hCRF(10-41)] (H-LT[Nle]HLLREVLEMARAEQLAQQAHSNRKLMEII-NH2), the “secretion of ACTH and β-END-LI (antagonist test)” value in assay [1] was “inhibits”.
As for “H-SEEPPISLDLTFHLLREVLE[Nle]ARAEQLAQQAYLNRKLMEEI-NH2 [[Nle^21, Tyr^32, Leu^33, Glu^40]-rCRF]”, the “lowering of blood pressure” value in assay [2] is listed as “very significant lowering of blood pressure to a greater extent than rCRF”. Moreover, the “secretion of ACTH and β-END-LI” value in assay [3] is reported as “stimulates”.
“H-SEEPPISLDLTFHLLREVLE[Nle]A[hArg]AEQLAQQAHLNRKLMEE[Nle]-NH2”: the “lowering of blood pressure” value in assay [2] was “very significant lowering of blood pressure”. Besides, in assay [3], the “secretion of ACTH and β-END-LI” value is listed as “stimulates”.
For the compound “H-SEEPPISLDLTLELLREMLEME[Orn]AEKEAEQAALNRLLLEEA-NH2”, the “lowering of blood pressure” value in assay [2] is “very significant lowering of blood pressure”. Also, the “secretion of ACTH and β-END-LI” value in assay [3] was “stimulates”.
For the compound “H-SEEPPISLELTFHLLREVLE[Nle]ARAEQLAEQAHLNRKLMEII-NH2 [[Glu^9, Nle^21, Glu^29, Leu^33]-rCRF]”, the “lowering of blood pressure” value in assay [2] was “very significant lowering of blood pressure to a greater extent than rCRF”. For the same compound, the “secretion of ACTH and β-END-LI” value in assay [3] is recorded as “stimulates”.
Taken in the same sequence, the figures for “H-SEEPPIS[Nle]DLSFHLLREVLEMARAEQLAQQAHLNRKLMEEI-NH2 [[Nle^8, Ser^11, Leu^33, Glu^40]-rCRF]” were “very significant lowering of blood pressure” and “stimulates”.
Consider “H-SQEPPISLDLTFALLREMLEMAKAEQEAEQAALNRLLLEEA-NH2 [[Ala^13]-AHC]”, for which the “lowering of blood pressure” value in assay [2] is listed as “very significant lowering of blood pressure”. In addition, the “secretion of ACTH and β-END-LI” value in assay [3] is “stimulates”.
Consider “H-SQEPPISLDLTFHLLREVLE[Nle]TKADQLAEQAHSNRKLLDIA-NH2 [[Nle^21,Glu^29]-oCRF]”, for which the “lowering of blood pressure” value in assay [2] is recorded as “very significant lowering of blood pressure”. Further, in assay [3], the “secretion of ACTH and β-END-LI” value is listed as “stimulates”.
Take “H-SQEPPISLDLTFHLLRE[Nle]LE[Nle]AKAEQEAEQAALNRLLLEEA-NH2 [[Nle^18, ^21]-AHC]”: in assay [2], the “lowering of blood pressure” value was “very significant lowering of blood pressure”. Moreover, the “secretion of ACTH and β-END-LI” value in assay [3] is “stimulates”.
Consider “H-SQEPPISLDLTFHLLRE[Nle]LE[Nle]TKADQLRQQAHSNRKLLDIA-NH2 [[Nle^18,21,Arg^28]-oCRF]”, for which the “lowering of blood pressure” value in assay [2] is “very significant lowering of blood pressure”. Further, the “secretion of ACTH and β-END-LI” value in assay [3] is listed as “stimulates”.
As for “H-SQEPPISLDLTLELLREMLEMAKAEQEAEQAALNRLYLEEA-NH2 [[Leu^12, G1u^13, Tyr^37]-AHC]”, the “lowering of blood pressure” value in assay [2] is on record as “very significant lowering of blood pressure”. Also, the “secretion of ACTH and β-END-LI” value in assay [3] is on record as “stimulates”.
As for “H-SQEPPISLELTFHLLRE[Nle]LE[Nle]AKAEQEAEQAALNRLLLEEA-NH2 [[Glu^9, Nle^18' ^21]-AHC]”, the “lowering of blood pressure” value in assay [2] is “very significant lowering of blood pressure”. For the same compound, the “secretion of ACTH and β-END-LI” value in assay [3] was “stimulates”.
Turning to “H-SQE[dP]PISLDLTFHLLRE[Nle]LE[Nle]AKAEQEAEQAALNRLLLEEA-NH2 [[D-Pro^4, Nle^18,21]-AHC]”, the “lowering of blood pressure” value in assay [2] is recorded as “very significant lowering of blood pressure”. In addition, the “secretion of ACTH and β-END-LI” value in assay [3] is “stimulates”.
Take “H-SQ[dY][dP]PISLDLTFHLLRE[Nle]LE[Nle]AKAEQEAEQAALNRLLLEEA-NH2 [[D-Tyr^3, D-Pro^4, Nle^18, ^21]-AHC]”: the “lowering of blood pressure” value in assay [2] is “very significant lowering of blood pressure”. For the same compound, the “secretion of ACTH and β-END-LI” value in assay [3] is reported as “stimulates”.
“H-YSEEPPISLDLTFHLLREVLEMARAEQLAEQAHSNRKLMEII-NH2 [[Tyr-Ser^1, Glu^29]-rCRF]”: the “lowering of blood pressure” value in assay [2] is “very significant lowering of blood pressure”. In addition, the “secretion of ACTH and β-END-LI” value in assay [3] was “stimulates”.
As to “SEEPPISLDLTFHLLREVLEMTRAEQLAEQAHSNRKLMEEI-NH2 [[Thr^22, Glu^29,40]-rCRF]”, the “lowering of blood pressure” value in assay [2] was “very significant lowering of blood pressure”. In addition, the “secretion of ACTH and β-END-LI” value in assay [3] is recorded as “stimulates”.
Take “SQEPPISLDLTFHLLREVLEMA[Orn]AEQLAEQAHSNRKLLEII-NH2 [[Gln^2, Orn^23, Glu^29, Leu^38]-rCRF]”: the “lowering of blood pressure” value in assay [2] is given as “very significant lowering of blood pressure”. Further, the “secretion of ACTH and β-END-LI” value in assay [3] was “stimulates”.
